In PubChem BioAssay (NCI):
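GI50 marks 50% less growth. TGI is the concentration that stops growth completely.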

Legend:
Assay in all cases: NCI tumour cell line growth inhibition, 384-well format
[1] = test system: 786-0 renal
[2] = test system: A498 renal
[3] = test system: A549 NSCLC
[4] = test system: ACHN renal
[5] = test system: BT-549 breast
[6] = test system: CAKI-1 renal
[7] = test system: CCRF-CEM leukemia
[8] = test system: COLO 205 colon
[9] = test system: DU-145 prostate
[10] = test system: HCC-2998 colon
[11] = test system: HCT-116 colon
[12] = test system: HCT-15 colon
[13] = test system: HL-60(TB) leukemia
[14] = test system: HOP-62 NSCLC
[15] = test system: HOP-92 NSCLC
[16] = test system: HT29 colon
[17] = test system: IGROV1 ovarian
[18] = test system: K-562 leukemia
[19] = test system: KM12 colon
[20] = test system: LOX IMVI melanoma
[21] = test system: M14 melanoma
[22] = test system: MALME-3M melanoma
[23] = test system: MCF7 breast
[24] = test system: MDA-MB-231 breast
[25] = test system: MDA-MB-435 melanoma
[26] = test system: MDA-MB-468 breast
[27] = test system: MOLT-4 leukemia
[28] = test system: NCI-H226 lung
[29] = test system: NCI-H23 lung
[30] = test system: NCI-H322M lung
[31] = test system: NCI-H460 NSCLC
[32] = test system: NCI-H522 lung
[33] = test system: NCI/ADR-RES ovarian
[34] = test system: OVCAR-3 ovarian
[35] = test system: OVCAR-4 ovarian
[36] = test system: OVCAR-5 ovarian
[37] = test system: OVCAR-8 ovarian
[38] = test system: PC-3 prostate
[39] = test system: RPMI-8226 leukemia
[40] = test system: RXF 393 renal
[41] = test system: SF-268 CNS
[42] = test system: SF-295 CNS
[43] = test system: SF-539 CNS
[44] = test system: SK-MEL-2 melanoma
[45] = test system: SK-MEL-28 melanoma
[46] = test system: SK-MEL-5 melanoma
[47] = test system: SK-OV-3 ovarian
[48] = test system: SN12C renal
[49] = test system: SNB-19 CNS
[50] = test system: SR leukemia
[51] = test system: SW-620 colon
[52] = test system: T-47D breast
[53] = test system: TK-10 renal
[54] = test system: U251 glioblastoma
[55] = test system: UACC-257 melanoma
[56] = test system: UACC-62 melanoma
[57] = test system: UO-31 renal

COc1nnc2ccc(N3CCC(c4ccc(OCCN5CCN(C)C(=O)[C@H]5C)cc4)CC3)nn12
GI50 [1]: 45.5 nM
TGI [1]: 13400 nM
GI50 [2]: 53.8 nM
TGI [2]: 655 nM
GI50 [3]: 42.5 nM
TGI [3]: 1640 nM
GI50 [4]: 108 nM
TGI [4]: 3050 nM
GI50 [5]: 23.1 nM
TGI [5]: 214 nM
GI50 [6]: 16.9 nM
TGI [6]: 382 nM
GI50 [7]: 26.8 nM
TGI [7]: 166 nM
GI50 [8]: 35.9 nM
TGI [8]: 248 nM
GI50 [9]: 369 nM
TGI [9]: > 100000 nM
GI50 [10]: 13.3 nM
TGI [10]: 48.8 nM
GI50 [11]: 37.7 nM
TGI [11]: 2530 nM
GI50 [12]: 31.7 nM
TGI [12]: 194 nM
GI50 [13]: < 10 nM
TGI [13]: 19.1 nM
GI50 [14]: 27.4 nM
TGI [14]: 475 nM
GI50 [15]: 12.7 nM
TGI [15]: 74.5 nM
GI50 [16]: 28.8 nM
TGI [16]: 2120 nM
GI50 [17]: 29.3 nM
TGI [17]: 162 nM
GI50 [18]: 35 nM
TGI [18]: 3710 nM
GI50 [19]: 46 nM
TGI [19]: 12500 nM
GI50 [20]: 27.2 nM
TGI [20]: 61 nM
GI50 [21]: 18.3 nM
TGI [21]: 1570 nM
GI50 [22]: 73.8 nM
TGI [22]: 791 nM
GI50 [23]: 11.7 nM
TGI [23]: 158 nM
GI50 [24]: 46.2 nM
TGI [24]: 2570 nM
GI50 [25]: 75.9 nM
TGI [25]: > 100000 nM
GI50 [26]: < 10 nM
TGI [26]: 51.2 nM
GI50 [27]: 14.3 nM
TGI [27]: 37.7 nM
GI50 [28]: 38.9 nM
TGI [28]: 416 nM
GI50 [29]: 62.7 nM
TGI [29]: 629 nM
GI50 [30]: 28.9 nM
TGI [30]: 640 nM
GI50 [31]: 58.7 nM
TGI [31]: 15400 nM
GI50 [32]: < 10 nM
TGI [32]: 46 nM
GI50 [33]: 269 nM
TGI [33]: 2180 nM
GI50 [34]: 17.2 nM
TGI [34]: 135 nM
GI50 [35]: 10.2 nM
TGI [35]: 40.2 nM
GI50 [36]: 60.5 nM
TGI [36]: 2970 nM
GI50 [37]: 23.9 nM
TGI [37]: 218 nM
GI50 [38]: 122 nM
TGI [38]: 90700 nM
GI50 [39]: 12.2 nM
TGI [39]: 33.8 nM
GI50 [40]: 22.8 nM
TGI [40]: 78.8 nM
GI50 [41]: 58.6 nM
TGI [41]: 14400 nM
GI50 [42]: 86.4 nM
TGI [42]: 4970 nM
GI50 [43]: 53.9 nM
TGI [43]: 8620 nM
GI50 [44]: < 10 nM
TGI [44]: 41.3 nM
GI50 [45]: 30.6 nM
TGI [45]: 1490 nM
GI50 [46]: 17.8 nM
TGI [46]: 98.6 nM
GI50 [47]: 17.3 nM
TGI [47]: 144 nM
GI50 [48]: 165 nM
TGI [48]: 1480 nM
GI50 [49]: 311 nM
TGI [49]: 77900 nM
GI50 [50]: < 10 nM
TGI [50]: 20.8 nM
GI50 [51]: 114 nM
TGI [51]: 1280 nM
GI50 [52]: 29.7 nM
TGI [52]: 537 nM
GI50 [53]: 34.8 nM
TGI [53]: 460 nM
GI50 [54]: 77.1 nM
TGI [54]: 11900 nM
GI50 [55]: 25 nM
TGI [55]: 573 nM
GI50 [56]: < 10 nM
TGI [56]: 96.4 nM
GI50 [57]: 56.9 nM
TGI [57]: 1560 nM
